Test system: Pythium ultimum
Test: Pythium ultimum / liquid culture (seedling damping off)
Format: cell-based
Conditions: Globisporangium ultimum, growth inhibition photometrically 2-3 days after application, compared to untreated control
Protocol: 15. Pythium ultimum/Liquid Culture (Seedling Damping Off) Mycelia fragments and oospores of a newly grown liquid culture of the fungus are directly mixed into nutrient broth (PDB potato dextrose broth). After placing a (DMSO) solution of test compound into a microtiter plate (96-well format), the nutrient broth containing the fungal mycelia/spore mixture is added. The test plates are incubated at 24° C. and the inhibition of growth is determined photometrically 2-3 days after application.

Row | Compound | inhibition of growth at 20 ppm [%]
1 | COc1c(C(=O)NCc2ccccn2)ccc2c1B(O)OC2 [Compound 7, 1-hydroxy-7-methoxy-N-(2-pyridylmethyl)-3H-2,1-benzoxaborole-6-carboxamide] | ≥ 80
2 | COc1c(C(=O)N(C)C)ccc2c1B(O)OC2 [Compound 11, 1-hydroxy-7-methoxy-N,N-dimethyl-3H-2,1-benzoxaborole-6-carboxamide] | ≥ 80
3 | CN(C)C(=O)c1ccc2c(c1Cl)B(O)OC2 [Compound 13, 7-chloro-1-hydroxy-N,N-dimethyl-3H-2,1-benzoxaborole-6-carboxamide] | ≥ 80
4 | CCOC(=O)N1CCC(NC(=O)c2ccc3c(c2OC)B(O)OC3)CC1 [Compound 18, ethyl 4-[(1-hydroxy-7-methoxy-3H-2,1-benzoxaborole-6-carbonyl)amino]piperidine-1-carboxylate] | ≥ 80
5 | COc1c(C(=O)NC(=O)N(C)C)ccc2c1B(O)OC2 [Compound 21, N-(dimethylcarbamoyl)-1-hydroxy-7-methoxy-3H-2,1-benzoxaborole-6-carboxamide] | ≥ 80
6 | COc1c(C(=O)Nc2cc(C)cc(C)n2)ccc2c1B(O)OC2 [Compound 22, N-(4,6-dimethyl-2-pyridyl)-1-hydroxy-7-methoxy-3H-2,1-benzoxaborole-6-carboxamide] | ≥ 80
7 | COC(=O)C1CCN(C(=O)c2ccc3c(c2OC)B(O)OC3)CC1 [Compound 24, methyl 1-(1-hydroxy-7-methoxy-3H-2,1-benzoxaborole-6-carbonyl)piperidine-4-carboxylate] | ≥ 80
8 | COCCN(C)C(=O)c1ccc2c(c1OC)B(O)OC2 [Compound 27, 1-hydroxy-7-methoxy-N-(2-methoxyethyl)-N-methyl-3H-2,1-benzoxaborole-6-carboxamide] | ≥ 80
9 | COc1c(C(=O)N(C)c2nc(C)c(S(N)(=O)=O)s2)ccc2c1B(O)OC2 [Compound 28, 1-hydroxy-7-methoxy-N-methyl-N-(4-methyl-5-sulfamoyl-thiazol-2-yl)-3H-2,1-benzoxaborole-6-carboxamide] | ≥ 80
10 | COc1c(C(=O)N(C)c2ccccn2)ccc2c1B(O)OC2 [Compound 30, 1-hydroxy-7-methoxy-N-methyl-N-(2-pyridyl)-3H-2,1-benzoxaborole-6-carboxamide] | ≥ 80
11 | COc1c(C(=O)NCC(C)C)ccc2c1B(O)OC2 [Compound 36, 1-hydroxy-N-isobutyl-7-methoxy-3H-2,1-benzoxaborole-6-carboxamide] | ≥ 80
12 | CCOC(=O)C1(NC(=O)c2ccc3c(c2OC)B(O)OC3)CC1 [Compound 37, ethyl 1-[(1-hydroxy-7-methoxy-3H-2,1-benzoxaborole-6-carbonyl)amino]cyclopropanecarboxylate] | ≥ 80
13 | COc1c(C(=O)Nc2c(C(C)C)ccnc2C(C)C)ccc2c1B(O)OC2 [Compound 38, N-(2,4-diisopropyl-3-pyridyl)-1-hydroxy-7-methoxy-3H-2,1-benzoxaborole-6-carboxamide] | ≥ 80
14 | COc1c(C(=O)N(C)c2cc(Cl)cnc2Cl)ccc2c1B(O)OC2 [Compound 39, N-(2,5-dichloro-3-pyridyl)-1-hydroxy-7-methoxy-N-methyl-3H-2,1-benzoxaborole-6-carboxamide] | ≥ 80
15 | CCSc1nc(NC(=O)c2ccc3c(c2OC)B(O)OC3)nn1C [Compound 40, N-(5-ethylsulfanyl-1-methyl-1,2,4-triazol-3-yl)-1-hydroxy-7-methoxy-3H-2,1-benzoxaborole-6-carboxamide] | ≥ 80
16 | COc1c(C(=O)Nc2ccnc(C)c2)ccc2c1B(O)OC2 [Compound 42, 1-hydroxy-7-methoxy-N-(2-methyl-4-pyridyl)-3H-2,1-benzoxaborole-6-carboxamide] | ≥ 80
17 | COc1c(C(=O)Nc2nnc(C)[nH]2)ccc2c1B(O)OC2 [Compound 43, 1-hydroxy-7-methoxy-N-(5-methyl-4H-1,2,4-triazol-3-yl)-3H-2,1-benzoxaborole-6-carboxamide] | ≥ 80
18 | CCC(NC(=O)c1ccc2c(c1OC)B(O)OC2)C(=O)OC (centres unmarked) [Compound 44, methyl 2-[(1-hydroxy-7-methoxy-3H-2,1-benzoxaborole-6-carbonyl)amino]butanoate] | ≥ 80
19 | COc1c(C(=O)NC(=S)N(C)Cc2cccnc2)ccc2c1B(O)OC2 [Compound 47, 1-hydroxy-7-methoxy-N-[methyl(3-pyridylmethyl)carbamothioyl]-3H-2,1-benzoxaborole-6-carboxamide] | ≥ 80
20 | CCN(Cc1cccnc1)C(=O)c1ccc2c(c1OC)B(O)OC2 [Compound 48, N-ethyl-1-hydroxy-7-methoxy-N-(3-pyridylmethyl)-3H-2,1-benzoxaborole-6-carboxamide] | ≥ 80
21 | COc1c(C(=O)N(C)c2ncn[nH]2)ccc2c1B(O)OC2 [Compound 50, 1-hydroxy-7-methoxy-N-methyl-N-(1H-1,2,4-triazol-5-yl)-3H-2,1-benzoxaborole-6-carboxamide] | ≥ 80

Row | Compound | inhibition of growth at 20 ppm [%]
22 | COc1n[nH]c(NC(=O)c2ccc3c(c2OC)B(O)OC3)n1 [Compound 51, 1-hydroxy-7-methoxy-N-(3-methoxy-1H-1,2,4-triazol-5-yl)-3H-2,1-benzoxaborole-6-carboxamide] | ≥ 80
23 | COc1c(C(=O)NCCOc2ccccc2)ccc2c1B(O)OC2 [Compound 56, 1-hydroxy-7-methoxy-N-(2-phenoxyethyl)-3H-2,1-benzoxaborole-6-carboxamide] | ≥ 80
24 | COc1c(C(=O)NCc2ccc(Cl)nc2)ccc2c1B(O)OC2 [Compound 59, N-[(6-chloro-3-pyridyl)methyl]-1-hydroxy-7-methoxy-3H-2,1-benzoxaborole-6-carboxamide] | ≥ 80
25 | COc1c(C(=O)NC(C)(C)C)ccc2c1B(O)OC2 [Compound 60, N-tert-butyl-1-hydroxy-7-methoxy-3H-2,1-benzoxaborole-6-carboxamide] | ≥ 80
26 | COc1c(C(=O)NCC2CC(F)(F)C2(F)F)ccc2c1B(O)OC2 (centres unmarked) [Compound 62, 1-hydroxy-7-methoxy-N-[(2,2,3,3-tetrafluorocyclobutyl)methyl]-3H-2,1-benzoxaborole-6-carboxamide] | ≥ 80
27 | COC(=O)c1cc(NC(=O)c2ccc3c(c2OC)B(O)OC3)cn1C [Compound 67, methyl 4-[(1-hydroxy-7-methoxy-3H-2,1-benzoxaborole-6-carbonyl)amino]-1-methyl-pyrrole-2-carboxylate] | ≥ 80
28 | COc1c(C(=O)NCc2ncc(C(F)(F)F)cc2Cl)ccc2c1B(O)OC2 [Compound 68, N-[[3-chloro-5-(trifluoromethyl)-2-pyridyl]methyl]-1-hydroxy-7-methoxy-3H-2,1-benzoxaborole-6-carboxamide] | ≥ 80
29 | CCC1COC(CNC(=O)c2ccc3c(c2OC)B(O)OC3)O1 (centres unmarked) [Compound 69, N-[(4-ethyl-1,3-dioxolan-2-yl)methyl]-1-hydroxy-7-methoxy-3H-2,1-benzoxaborole-6-carboxamide] | ≥ 80
30 | COc1c(C(=O)NCc2ccc(C)o2)ccc2c1B(O)OC2 [Compound 70, 1-hydroxy-7-methoxy-N-[(5-methyl-2-furyl)methyl]-3H-2,1-benzoxaborole-6-carboxamide] | ≥ 80
31 | COc1c(C(=O)n2nc(N)cc2C)ccc2c1B(O)OC2 [Compound 71, (3-amino-5-methyl-pyrazol-1-yl)-(1-hydroxy-7-methoxy-3H-2,1-benzoxaborol-6-yl)methanone] | ≥ 80
32 | COc1c(C(=O)N2CCCC2CO)ccc2c1B(O)OC2 (centres unmarked) [Compound 72, (1-hydroxy-7-methoxy-3H-2,1-benzoxaborol-6-yl)-[2-(hydroxymethyl)pyrrolidin-1-yl]methanone] | ≥ 80
33 | COc1c(C(=O)OCn2cncn2)ccc2c1B(O)OC2 [Compound 73, 1,2,4-triazol-1-ylmethyl 1-hydroxy-7-methoxy-3H-2,1-benzoxaborole-6-carboxylate] | ≥ 80
34 | COc1c(C(=O)OCC(C)(F)F)ccc2c1B(O)OC2 [Compound 74, 2,2-difluoropropyl 1-hydroxy-7-methoxy-3H-2,1-benzoxaborole-6-carboxylate] | ≥ 80
35 | COc1c(C(=O)OCC(C)=O)ccc2c1B(O)OC2 [Compound 76, acetonyl 1-hydroxy-7-methoxy-3H-2,1-benzoxaborole-6-carboxylate] | ≥ 80
36 | COc1cc(COC(=O)c2ccc3c(c2OC)B(O)OC3)nc(OC)n1 [Compound 78, (2,6-dimethoxypyrimidin-4-yl)methyl 1-hydroxy-7-methoxy-3H-2,1-benzoxaborole-6-carboxylate] | ≥ 80
37 | COc1c(C(=O)OCc2ccncc2)ccc2c1B(O)OC2 [Compound 106, 4-pyridylmethyl 1-hydroxy-7-methoxy-3H-2,1-benzoxaborole-6-carboxylate] | ≥ 80
38 | COC(=O)C[C@H](OC(=O)c1ccc2c(c1OC)B(O)OC2)C(=O)OC [Compound 108, dimethyl (2S)-2-(1-hydroxy-7-methoxy-3H-2,1-benzoxaborole-6-carbonyl)oxybutanedioate] | ≥ 80
39 | COc1c(C(=O)OCCN(C)C(=O)OC(C)(C)C)ccc2c1B(O)OC2 [Compound 112, 2-[tert-butoxycarbonyl(methyl)amino]ethyl 1-hydroxy-7-methoxy-3H-2,1-benzoxaborole-6-carboxylate] | ≥ 80
40 | COc1c(C(=O)OCC2COC(=O)O2)ccc2c1B(O)OC2 (centres unmarked) [Compound 113, (2-oxo-1,3-dioxolan-4-yl)methyl 1-hydroxy-7-methoxy-3H-2,1-benzoxaborole-6-carboxylate] | ≥ 80
41 | COc1c(C(=O)OC2COCOC2)ccc2c1B(O)OC2 [Compound 122, 1,3-dioxan-5-yl 1-hydroxy-7-methoxy-3H-2,1-benzoxaborole-6-carboxylate] | ≥ 80

From patent US20180244699A1, “1-HYDROXY-3H-2,1-BENZOXABOROLE DERIVATIVES AND THEIR USE AS MICROBIOCIDES” (Syngenta Participations AG, priority 2015, published 2018)
